{"source": "patent US20130030025A1", "about": "“USE OF POTASSIUM CHANNEL BLOCKERS TO TREAT CEREBRAL PALSY” (priority 2011, published 2013)", "key": {"[1]": {"test_system": "middle cerebral artery occlusion (MCAO) in rats", "test": "Hindlimb placing test after MCAO", "format": "in vivo, Sprague Dawley rats", "set-up": "Hindlimb Placing Total Score, Mean: scale not given here", "method": "4-AP was evaluated for its ability to promote functional sensorimotor improvement following ischemic stroke in rats with stable motor deficits at times remote from their ischemic events. The animal model mimics the conditions in human ischemic stroke and is produced by middle cerebral artery occlusion (MCAO), which results in extensive infarction in cerebral cortex and striatum, including the cortical spinal tract (white matter). In particular, the MCAO model in Sprague Dawley rats that was utilized in the experiments presented below mimics the conditions in human ischemic stroke. In this experiment, Sprague Dawley rats were anesthetized, subjected to a surgery resulting in middle cerebral artery occlusion (MCAO), treated with and without 4-aminopyridine and behavioral assessments were performed as described below. Surgical Procedure: A small focal stroke (infarct) was made on the right side of the surface of the brain (cerebral cortex) by middle cerebral artery occlusion (MCAO). The right side of the head was shaved with electric clippers (patch of approx 3×5 cm between eye and ear). The region was carefully cleaned with septisol. Using aseptic technique, an incision was made midway between the eye and eardrum canal. The temporalis muscle was isolated, bisected, and reflected. A small window of bone was removed via drill and rongeurs (subtemporal craniectomy) to expose the middle cerebral artery (MCA). Care was taken not to remove the zygomatic arch or to transect the facial nerve that would impair the ability of the animal to chew after surgery. […] The MCA was then transected. The temporalis muscle was then repositioned, and the incision was closed subcutaneously with sutures. The skin incision was closed with surgical staples (2-3 required). Throughout the procedure, body temperature was maintained at 37.0°±1° C., using a self-regulating heating pad connected to a rectal thermometer. Dosing: Rats were treated in accordance with the dosing schedule shown in Tables 1A, 1B, and FIG. 2, with each Phase being a two week period of time. A solution of 4-AP was used in this experiment. Dosing was started at 4 weeks after ischemic event. Treatment groups: Dosing was started 4 weeks after pMCAO surgery. During these 4 weeks, weekly behavioral assessments, as defined below, were performed. Two dose levels of 4-AP plus vehicle control were assessed, with treatment starting at 4 weeks after ischemic event. All dosing was via gastric gavage, volume not to exceed 2 mL/kg. Animals were given the first dose and behavioral assessments were performed starting 60 minutes after dosing. Animals then received the second dose that day at the appropriate time and b.i.d (preferably every 12 hours) thereafter for 2 more days (3 total days of dosing, 5 total doses). One hour after the 5th dose, animals were subjected to behavioral assessments as defined below. Following the final behavioral assessment, drug was withdrawn for 10 or 11 days, behavior was re-assessed, and then animals were re-challenged with a cross-over treatment (Phase II of Table 1B) as described in Tables 1A, 1B, followed by the same behavioral testing and dosing regimen. This cross-over was repeated one more time as well (Phase III of Table 1B) (see FIG. 2). Behavioral test details: Behavioral evaluations were done by investigators blinded to treatment assignment. As described above, behavioral assessments were timed exactly with dosing times. Animals were given the first dose, behavioral assessments were performed starting 60 minutes later, and blood was collected 90 minutes after dosing. Animals then received the second dose that day at the appropriate time and b.i.d (preferably every 12 hours) thereafter for 2 more days (3 total days of dosing, 5 total doses). One hour after the 5th dose, animals were subjected to behavioral testing. […]"}, "[2]": {"test_system": "middle cerebral artery occlusion (MCAO) in rats", "test": "Cylinder test, total movement after MCAO", "format": "in vivo, Sprague Dawley rats", "method": "The Y axis represents the behavioral score. […] Treatment groups: Dosing was started 4 weeks after pMCAO surgery. During these 4 weeks, weekly behavioral assessments, as defined below, were performed. Two dose levels of 4-AP plus vehicle control were assessed, with treatment starting at 4 weeks after ischemic event. All dosing was via gastric gavage, volume not to exceed 2 mL/kg. Animals were given the first dose and behavioral assessments were performed starting 60 minutes after dosing. Animals then received the second dose that day at the appropriate time and b.i.d (preferably every 12 hours) thereafter for 2 more days (3 total days of dosing, 5 total doses). One hour after the 5th dose, animals were subjected to behavioral assessments as defined below. Following the final behavioral assessment, drug was withdrawn for 10 or 11 days, behavior was re-assessed, and then animals were re-challenged with a cross-over treatment (Phase II of Table 1B) as described in Tables 1A, 1B, followed by the same behavioral testing and dosing regimen. This cross-over was repeated one more time as well (Phase III of Table 1B) (see FIG. 2). Behavioral test details: Behavioral evaluations were done by investigators blinded to treatment assignment. As described above, behavioral assessments were timed exactly with dosing times. Animals were given the first dose, behavioral assessments were performed starting 60 minutes later, and blood was collected 90 minutes after dosing. Animals then received the second dose that day at the appropriate time and b.i.d (preferably every 12 hours) thereafter for 2 more days (3 total days of dosing, 5 total doses). One hour after the 5th dose, animals were subjected to behavioral testing. Following the final behavioral assessment, drug was withdrawn for 10 or 11 days, behavior was re-assessed, and then animals were re-challenged with a cross-over treatment as described in Tables 1A, 1B, and FIG. 2, followed by the same behavioral testing and dosing regimen. Evaluation was performed at Day -1 (pre-operation), Day 7, Day 21, Day 30, Day 32, Day 44, Day 46, Day 58, Day 60. This test assessed limb use asymmetry. Rats were placed in a transparent cylinder (20 cm in diameter and 30 cm in height) for 3-6 minutes. A mirror was placed behind the cylinder to determine forelimb movements when animal was turned away from the camera. […] Simultaneous use of both left and right forelimbs while contacting the wall during a full rear was also scored. A total number of 20 forelimb placings were counted during a trial. Data was expressed in terms of percent use of the non-impaired and or impaired forelimb relative to the total number of limb use observations for wall movements."}}, "note": "“And” between values parts separate entries of the source, which are not always exact repeats. Identical values can stand only once. “Also recorded” adds a separate entry of the source.", "data": [{"smiles": "Nc1ccncc1", "note": "[4-AP, 4-aminopyridine]", "values": [{"measurement": "Hindlimb Placing Total Score", "setting": "[1]; Group II, D30, individual animals", "value": "2.50 and 1.50 (4×) and 2.00 (3×) and 1.00 and 0.50"}, {"measurement": "Hindlimb Placing Total Score, Mean", "setting": "[1]; Group II, D30, mean of N 15", "value": 1.73}, {"measurement": "Hindlimb Placing Total Score", "setting": "[1]; Group II, D32, individual animals", "value": "2.00 and 1.00 (3×) and 1.50 (5×) and 0.50"}, {"measurement": "Hindlimb Placing Total Score, Mean", "setting": "[1]; Group II, D32, mean of N 15", "value": 1.37}, {"measurement": "Hindlimb Placing Total Score", "setting": "[1]; Group II, D58, individual animals", "value": "2.00 and 0.00 (4×) and 1.00 and 1.50 (3×) and 0.50"}, {"measurement": "Hindlimb Placing Total Score, Mean", "setting": "[1]; Group II, D58, mean of N 15", "value": 0.83}, {"measurement": "Hindlimb Placing Total Score", "setting": "[1]; Group II, D60, individual animals", "value": "0.50 (3×) and 0.00 (6×) and 1.00"}, {"measurement": "Hindlimb Placing Total Score, Mean", "setting": "[1]; Group II, D60, mean of N 15", "value": 0.23}, {"measurement": "Hindlimb Placing Total Score, Mean", "setting": "[1]; Group III, D44, high dose phase (inferred), mean of N 15", "value": 0.90}, {"measurement": "Hindlimb Placing Total Score, Mean", "setting": "[1]; Group III, D46, high dose phase (inferred), mean of N 15", "value": 0.30}, {"measurement": "Hindlimb Placing Total Score, Mean", "setting": "[1]; Group III, D58, low dose phase (inferred), mean of N 15", "value": 0.80}, {"measurement": "Hindlimb Placing Total Score, Mean", "setting": "[1]; Group III, D60, low dose phase (inferred), mean of N 15", "value": 0.70}, {"measurement": "Hindlimb Placing Total Score, Mean", "setting": "[1]; group mean N=15, Group I, Phase 1, D30, High 4-AP 2.0 mg/kg b.i.d. p.o., after first dose", "value": 1.67}, {"measurement": "Hindlimb Placing Total Score, Mean", "setting": "[1]; group mean N=15, Group I, Phase 1, D32, High 4-AP 2.0 mg/kg b.i.d. p.o., after 5th dose", "value": 0.97}, {"measurement": "Hindlimb Placing Total Score, Mean", "setting": "[1]; group mean N=15, Group I, Phase 2, D44, Low 4-AP 0.63 mg/kg b.i.d. p.o., after first dose", "value": 1.33}, {"measurement": "Hindlimb Placing Total Score, Mean", "setting": "[1]; group mean N=15, Group I, Phase 2, D46, Low 4-AP 0.63 mg/kg b.i.d. p.o., after 5th dose", "value": 1.13}, {"measurement": "Hindlimb Placing Total Score", "setting": "[1]; individual animals, Group I, Phase 1, D30, High 4-AP 2.0 mg/kg b.i.d. p.o., 60 min after first dose, 0=normal, 6=maximally impaired", "value": "1.50 (7×) and 3.00 (2×) and 2.50 (2×) and 2.00 and 1.00 and 0.00 and 0.50"}, {"measurement": "Hindlimb Placing Total Score", "setting": "[1]; individual animals, Group I, Phase 1, D32, High 4-AP 2.0 mg/kg b.i.d. p.o., 1 h after 5th dose, 0=normal, 6=maximally impaired", "value": "1.00 and 3.00 and 1.50 (6×) and 0.00 (4×) and 0.50 (3×)"}, {"measurement": "Hindlimb Placing Total Score", "setting": "[1]; individual animals, Group I, Phase 2, D44, Low 4-AP 0.63 mg/kg b.i.d. p.o., 60 min after first dose, 0=normal, 6=maximally impaired", "value": "2.00 (4×) and 3.00 and 1.50 (3×) and 0.50 (2×) and 0.00 (3×) and 2.50 and 1.00"}, {"measurement": "Hindlimb Placing Total Score", "setting": "[1]; individual animals, Group I, Phase 2, D46, Low 4-AP 0.63 mg/kg b.i.d. p.o., 1 h after 5th dose, 0=normal, 6=maximally impaired", "value": "2.00 (3×) and 3.00 and 1.50 (4×) and 0.00 (4×) and 0.50 (2×) and 1.00"}, {"measurement": "effect on hindlimb function (hindlimb placing test)", "setting": "[1]; low or high dose, 4 weeks post ischemic brain injury, rats, dose responsive, reversible", "value": "effective to improve hindlimb function; also recorded: significant improvement"}, {"measurement": "Cylinder Test (Total Movement), Mean", "setting": "[2]; Group I, D30, first dosing phase (high dose, inferred)", "value": 9.47}, {"measurement": "Cylinder Test (Total Movement), Mean", "setting": "[2]; Group I, D32, first dosing phase (high dose, inferred)", "value": 16.20}, {"measurement": "Cylinder Test (Total Movement), Mean", "setting": "[2]; Group I, D44, second dosing phase (low dose, inferred)", "value": 39.20}, {"measurement": "Cylinder Test (Total Movement), Mean", "setting": "[2]; Group I, D46, second dosing phase (low dose, inferred)", "value": 23.87}, {"measurement": "Cylinder Test (Total Movement), Mean", "setting": "[2]; Group II, D30, N 15", "value": 46.87}, {"measurement": "Cylinder Test (Total Movement), Mean", "setting": "[2]; Group II, D32, N 15", "value": 36.20}, {"measurement": "Cylinder Test (Total Movement), Mean", "setting": "[2]; Group II, D58, N 15", "value": 11.60}, {"measurement": "Cylinder Test (Total Movement), Mean", "setting": "[2]; Group II, D60, N 15", "value": 12.93}, {"measurement": "Cylinder Test (Total Movement), Mean", "setting": "[2]; Group III, D44, N 15", "value": 19.13}, {"measurement": "Cylinder Test (Total Movement), Mean", "setting": "[2]; Group III, D46, N 15", "value": 18.73}, {"measurement": "Cylinder Test (Total Movement), Mean", "setting": "[2]; Group III, D58, N 15", "value": 32.33}, {"measurement": "Cylinder Test (Total Movement), Mean", "setting": "[2]; Group III, D60, N 15", "value": 26.67}]}]}
